Laboratory results taken from patent US4298525A, “Bis-indole-alkaloid” (Richter Gedeon Vegyeszeti Gyar RT, priority 1979, dated 1981).
Where two headings read alike, the source gives them in different places.

Legend:
[1] = acute toxicity on mice (LD50, i.p.); format: in vivo
Experimental: The acute toxicity of RGH-4451 was tested on mice.
The lethal dose killed the animals on the 2nd to 5th day.

P 388 tumor cells = experiment: inhibition of tumor growth in tissue culture, P 388; format: cell-based, mice; conditions: for inhibition at 0.1 µg/mL: Mus musculus, P388
Experimental: The inhibition of tumor growth was initially studied in a tissue culture. A 20 mg./ml. solution of RGH-4451 in a Fischer medium was prepared and subsequently diluted to the desired concentration. The number of cells in the P 388 cultures was determined 24 and 48 hours after treatment.
The inhibition was 43% after 24 hours and 89% after 48 hours. In in vitro tests the compound was 100-times less toxic than vincristine and 4-times less toxic than N-desmethyl-N-formyl-leurosine.

P 388 leukemia = experiment: effect on P 388 leukemia tumors of mice; format: in vivo, BDF1 hybrid mice
Description: 10^6 P 388 leukemia cells were transplanted into BDF1 hybrid mice intraperitoneally. Administration of RGH-4451 was started the day following the transplantation.

NK/Ly ascites lymphoma = experiment: effect on NK/Ly ascites lymphoma; format: in vivo, outbred Swiss mice
Experimental: Tests were carried out analogously with the Ehrlich ascites test.
(§1) Transplantation was carried out into outbred Swiss mice at a level of 5×10^6 ascites tumor cells. Administration of RGH-4451 was started 24 hours after transplantation.

[2] = tested on: Ehrlich ascites carcinoma; experiment: effect on Ehrlich ascites carcinoma; format: in vivo, outbred Swiss mice; conditions: for Mean duration of life expressed in % of treated*/control: second part of table, maximum 400%
Experimental: as §1

S 180 sc. carcinoma = experiment: effect on S 180 sc. carcinoma; format: in vivo, Swiss mice; conditions: even at doses as high as 16 mg/kg i.p. daily
Experimental: S 180 sc. tumor tissues were transplanted into Swiss mice subcutaneously. Treatment was started 24 hours after transplantation. RGH-4451 was administered once a day in a dose of 2, 4, 8 and 16 mg./kg., respectively intraperitoneally. The tumor growth inhibition was evaluated on the 11th day on the basis of the weight of tumors. The change of the weight of spleen was also monitored.

Guerin sc. carcinoma = experiment: effect on Guerin sc. carcinoma; format: in vivo, Wistar rats; conditions: for Mortality until the 22nd day/number of animals / Inhibition / Weight of tumor, treated: six subsequent days; for Inhibition / Weight of tumor, treated: 22nd day
Experimental: Tumors were transplanted into Wistar rats subcutaneously. Administration of RGH-4451 was started on the day following the transplantation and the compound was administered six subsequent days intraperitoneally. The inhibition of tumor growth was evaluated on the 22nd day.

[3] = paralytic symptoms at sublethal doses; format: in vivo; conditions: even at sublethal doses; by contrast with vincristine
[4] = overall tumor-growth inhibition and prolongation of life (summary of the tests); format: in vivo
Experimental: From the tests described hereinabove it can be concluded that 1.0 to 10.0 mg./kg. daily doses or 20 mg./kg. single doses of RGH-4451 have a significant tumor-growth inhibition effect and prolong the duration of life.

[5] = therapeutic effect, MTD/min eff. D; conditions: in vivo
[6] = animals; cited from earlier work
[7] = human therapy; Rohn, R. et al.; cited from earlier work
[8] = in vivo
[9] = 3.2 mg/kg i.p., 9 treatments, every day
[10] = 3.2 mg/kg i.p., 9 treatments, every day, control 12.3 days
[11] = 5.0 mg/kg i.p., 9 treatments, every day
[12] = 5.0 mg/kg i.p., 9 treatments, every day, control 13.2 days
[13] = 6.4 mg/kg i.p., 9 treatments, every day
[14] = 6.4 mg/kg i.p., 9 treatments, every day, control 12.3 days
[15] = 10 mg/kg i.p., 5 treatments, every second day
[16] = 10 mg/kg i.p., 5 treatments, every second day, control 10.5 days
[17] = 20 mg/kg i.p., 1 treatment, control 10.5 days
[18] = 20 mg/kg i.p., 6 treatments, every day
[19] = 20 mg/kg i.p., 6 treatments, every day, control 13.2 days
[20] = 2.0 mg/kg i.p., 9 treatments, every day
[21] = 4.0 mg/kg i.p., 9 treatments, every day
[22] = 6.0 mg/kg i.p., 9 treatments, every day

CCOCN1c2cc(OC)c(C3(C(=O)OC)CC4CN(CCc5c3[nH]c3ccccc53)CC(O)(CC)C4)cc2C23CCN4CC=CC(CC)(C(OC(C)=O)C(O)(C(=O)OC)C12)C43 (centres unmarked) [RGH-4451]
LD50 of RGH-4451 as multiple of that of N-desmethyl-N-formyl-leurosine ([1]; i.p.): 2.5 times
LD50 of RGH-4451 as multiple of that of vinblastine ([1]; i.p.): about 10 times
LD50 of RGH-4451 as multiple of that of vincristine ([1]; i.p.): 17 fold
paralytic symptoms accompanying death ([1]; lethal dose): not accompanied by paralytic symptoms
LD50 ([1]; mouse, in vivo, ip): 70 mg/kg
crippling of surviving animals ([1]; survivors, in contrast with vincristine): not crippled even temporarily
growth of P 388 tumor cells (in words) (P 388 tumor cells; 10^-1 μg./ml.): considerably inhibited
inhibition at 0.1 µg/mL (P 388 tumor cells; 10^-1 μg./ml., after 24 hours): 43%
inhibition at 0.1 µg/mL (P 388 tumor cells; 10^-1 μg./ml., after 48 hours): 89%
in vitro toxicity, times less toxic than N-desmethyl-N-formyl-leurosine (P 388 tumor cells; in vitro, less toxic than N-desmethyl-N-formyl-leurosine): 4 times
in vitro toxicity, times less toxic than vincristine (P 388 tumor cells; in vitro, less toxic than vincristine): 100 times
Mean duration of life expressed in % of treated/control (P 388 leukemia; [9]): 181%
Mean duration of life, treated (P 388 leukemia; [10]): 22.3 days
Mean duration of life expressed in % of treated/control (P 388 leukemia; [11]): 163%
Mean duration of life, treated (P 388 leukemia; [12]): 21.5 days
Mean duration of life expressed in % of treated/control (P 388 leukemia; [13]): 166%
Mean duration of life, treated (P 388 leukemia; [14]): 20.5 days
Mean duration of life expressed in % of treated/control (P 388 leukemia; [15]): 208%
Mean duration of life, treated (P 388 leukemia; [16]): 21.8 days
Mean duration of life expressed in % of treated/control (P 388 leukemia; 20 mg/kg i.p., 1 treatment): 185%
Mean duration of life, treated (P 388 leukemia; [17]): 19.4 days
Mean duration of life expressed in % of treated/control (P 388 leukemia; [18]): 64%
Mean duration of life, treated (P 388 leukemia; [19]): 8.5 days
Mean duration of life expressed in % of treated/control (NK/Ly ascites lymphoma; [9]): 181%
Mean duration of life, treated (NK/Ly ascites lymphoma; [10]): 22.3 days
Mean duration of life expressed in % of treated/control (NK/Ly ascites lymphoma; [11]): 163%
Mean duration of life, treated (NK/Ly ascites lymphoma; [12]): 21.5 days
Mean duration of life expressed in % of treated/control (NK/Ly ascites lymphoma; [13]): 166%
Mean duration of life, treated (NK/Ly ascites lymphoma; [14]): 20.5 days
Mean duration of life expressed in % of treated/control (NK/Ly ascites lymphoma; [15]): 208%
Mean duration of life, treated (NK/Ly ascites lymphoma; [16]): 21.8 days
tolerability of the large dose given every day (in words) (NK/Ly ascites lymphoma; 20 mg/kg every day, cannot be administered due to its toxicity): cannot be administered every
Mean duration of life expressed in % of treated/control (NK/Ly ascites lymphoma; 20 mg/kg i.p., 1 treatment): 185%
Mean duration of life, treated (NK/Ly ascites lymphoma; [17]): 19.4 days
Mean duration of life expressed in % of treated/control (NK/Ly ascites lymphoma; [18]): 64%
Mean duration of life, treated (NK/Ly ascites lymphoma; [19]): 8.5 days
duration of life of the tumorous animals (in words) (NK/Ly ascites lymphoma; 3.2 to 6.4 mg/kg doses every day): considerably been prolonged
effect on duration of life (in words) (NK/Ly ascites lymphoma; single 20 mg/kg dose): also effective
Mean duration of life expressed in % of treated/control ([2]; 1.0 mg/kg i.p., 9 treatments, every day): 15.4%
Mean duration of life, treated ([2]; 1.0 mg/kg i.p., 9 treatments, every day, control 15.4 days): 54.2 days
On the 65th day alive [2, 20]: 9/10
On the 65th day tumor-free [2, 20]: 6/10
Mean duration of life, treated ([2]; 2.0 mg/kg i.p., 9 treatments, every day, control 16.4 days, first part of table): 43.0 days
Mean duration of life, treated ([2]; 2.0 mg/kg i.p., 9 treatments, every day, control 16.4 days, second part of table (65th day)): 64.1 days
Mean duration of life expressed in % of treated/control ([2]; 2.0 mg/kg i.p., 9 treatments, every day, first part of table): 261%
Mean duration of life expressed in % of treated*/control [2, 20]: 392%
On the 65th day alive [2, 21]: 8/10
On the 65th day tumor-free [2, 21]: 7/10
Mean duration of life, treated ([2]; 4.0 mg/kg i.p., 9 treatments, every day, control 16.4 days, first part of table): 36.4 days
Mean duration of life, treated ([2]; 4.0 mg/kg i.p., 9 treatments, every day, control 16.4 days, second part of table (65th day)): 62.9 days
Mean duration of life expressed in % of treated/control ([2]; 4.0 mg/kg i.p., 9 treatments, every day, first part of table): 222%
Mean duration of life expressed in % of treated*/control [2, 21]: 384%
On the 65th day alive [2, 22]: 8/10
On the 65th day tumor-free [2, 22]: 4/10
Mean duration of life, treated ([2]; 6.0 mg/kg i.p., 9 treatments, every day, control 15.9 days, first part of table): 48.2 days
Mean duration of life, treated ([2]; 6.0 mg/kg i.p., 9 treatments, every day, control 16.7 days, second part of table (65th day)): 65.8 days
Mean duration of life expressed in % of treated/control ([2]; 6.0 mg/kg i.p., 9 treatments, every day, first part of table): 303%
Mean duration of life expressed in % of treated*/control [2, 22]: 394%
On the 65th day alive ([2]; 20 mg/kg i.p., 1 treatment): 8/10
On the 65th day tumor-free ([2]; 20 mg/kg i.p., 1 treatment): 3/10
Mean duration of life, treated ([2]; 20 mg/kg i.p., 1 treatment, control 16.7 days, second part of table (65th day)): 65.5 days
Mean duration of life expressed in % of treated*/control ([2]; 20 mg/kg i.p., 1 treatment): 392%
antitumor effect (in words) ([2]; 2 to 6 mg/kg once a day): remarkable antitumor effect
proportion of treated animals tumor-free on the 65th day (in words) ([2]; 2 to 6 mg/kg once a day): a great part of the treated animals is tumor-free on the 65th day
decrease in the weight of spleen (S 180 sc. carcinoma): no substantial decrease in the weight of spleen
Mortality until the 22nd day/number of animals (Guerin sc. carcinoma; 2.0 mg/kg i.p.): 0/6
Inhibition (Guerin sc. carcinoma; 2.0 mg/kg i.p.): 43
Weight of tumor, treated (Guerin sc. carcinoma; 2.0 mg/kg i.p., control 18.9): 10.7
Mortality until the 22nd day/number of animals (Guerin sc. carcinoma; 6.0 mg/kg i.p.): 0/6
Inhibition (Guerin sc. carcinoma; 6.0 mg/kg i.p.): 81
Weight of tumor, treated (Guerin sc. carcinoma; 6.0 mg/kg i.p., control 44.9): 8.69
Mortality until the 22nd day/number of animals (Guerin sc. carcinoma; 10.0 mg/kg i.p.): 0/6
Inhibition (Guerin sc. carcinoma; 10.0 mg/kg i.p.): 68
Weight of tumor, treated (Guerin sc. carcinoma; 10.0 mg/kg i.p., control 44.9): 14.64
Mortality until the 22nd day/number of animals (Guerin sc. carcinoma; 14.0 mg/kg i.p.): 5/6
growth of Guerin carcinoma (in words) (Guerin sc. carcinoma; 2 to 10 mg/kg i.p. doses): strongly inhibited
paralytic symptoms [3]: entirely lacking
single dose with a significant tumor-growth inhibition effect and prolongation of life [4]: 20 mg/kg
MTD/min eff. D [5]: 10

CC[C@]12CN3CCc4c([nH]c5ccccc45)[C@@](C(=O)OC)(c4cc5c(cc4OC)N(C)[C@H]4[C@@](O)(C(=O)OC)[C@H](OC(C)=O)[C@]6(CC)C=CCN7CC[C@]54[C@@H]76)C[C@H](C3)[C@H]1O2 [leurosine]
antitumor activity [6]: antitumor activity of leurosine has been proved on animals
toxicity on the hematopoietic organs [7]: unreasonably high toxicity on the hematopoietic organs

CCC12CN3CCc4c([nH]c5ccccc45)C(C(=O)OC)(c4cc5c(cc4OC)N(C=O)C4C(O)(C(=O)OC)C(OC(C)=O)C6(CC)C=CCN7CCC54C76)CC(C3)C1O2 (centres unmarked) [N-desmethyl-N-formyl-leurosine, reference compound]
effect of a large single dose on the duration of life ([2]; large single dose): did not increase the duration of life
MTD/min eff. D [8]: 4
